Assays:
[1] = biological target: T1, CETP (Homo sapiens, UniProt P11597); assay: Ex vivo CETP activity inhibitory effect of plasma from transgenic mice; design: from tissue; host or cells: plasma of transgenic mice carrying the human CETP gene; settings: mouse, po, p.o., 6 hours after administration, transgenic mice with human CETP gene, read-out: CETP activity inhibitory rate in plasma from transgenic mouse
T1 sequence (P11597 18-493): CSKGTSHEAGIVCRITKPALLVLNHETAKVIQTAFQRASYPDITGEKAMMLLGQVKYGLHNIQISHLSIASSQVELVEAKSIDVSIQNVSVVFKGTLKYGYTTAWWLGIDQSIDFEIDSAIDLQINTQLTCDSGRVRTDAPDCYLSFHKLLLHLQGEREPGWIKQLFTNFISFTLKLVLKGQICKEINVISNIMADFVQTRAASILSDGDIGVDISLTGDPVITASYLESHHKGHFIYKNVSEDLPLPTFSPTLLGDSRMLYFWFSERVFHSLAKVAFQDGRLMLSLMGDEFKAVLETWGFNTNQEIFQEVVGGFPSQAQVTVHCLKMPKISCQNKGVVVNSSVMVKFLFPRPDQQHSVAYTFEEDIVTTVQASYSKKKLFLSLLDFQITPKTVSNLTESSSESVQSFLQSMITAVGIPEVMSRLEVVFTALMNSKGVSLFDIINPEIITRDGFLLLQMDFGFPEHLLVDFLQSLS
Procedure: Potassium bromide (KBr) was added to the plasma of healthy subjects (40 ml) to adjust specific gravity to d=1.125 g/ml. Density gradient centrifugation (227,000×g, 4° C., 17 hours) was conducted to obtain a fraction with specific gravity d>1.125 g/ml (HDL3 fraction). The fraction thus obtained was dialyzed against a PBS solution [10 mM Na2HPO4/10 mM NaH2PO4/0.15 M NaCl/1 mM EDTA (pH 7.4)]. Then, tritium-labeled cholesterol (10 nM) (50.3 Ci/mM) was dissolved in 95% ethanol and added gradually to the above HDL3 fraction under stirring. The solution was incubated for 18 hours at 37° C. [Tritium-labeled cholesterol was esterified by this procedure by the action of lecithin:cholesterol acyltransferase (LCAT) present on the surface of HDL3 and taken up into the interior of HDL3 as tritium-labeled cholesterylester ([^3H]CE)]. After incubation, KBr was added and specific gravity was adjusted to d=1.21 g/ml. Density gradient centrifugation (227,000×g, 4° C., 17 hours) was conducted and the fraction with d<1.21 g/ml was harvested. The fraction thus obtained was dialyzed against the above PBS solution to obtain HDL3 that took up [^3H]CE ([^3H]CE-HDL3, specific gravity: 1.125<d<1.21, specific activity: 101,000 dpm/nM), which served as donor lipoprotein.
Physiological saline (specific gravity d=1.006 g/ml) was layered upon the plasma of healthy subjects (100 ml). Density gradient centrifugation (227,000×g, 4° C., 4 hours) was conducted and the fraction with specific gravity d>1.006 g/ml was harvested. KBr was added to the fraction thus obtained to adjust specific gravity to d=1.063 g/ml and density gradient centrifugation (227,000×g, 4° C., 20 hours) was conducted to harvest the fraction with specific gravity […]. The thus-obtained fraction was dialyzed against the above PBS solution to obtain fractions containing IDL and LDL (specific gravity: 1.006<d<1.063), which served as acceptor lipoprotein.
Samples were suspended in a 0.5% methylcellulose solution and administered orally using a plastic probe to transgenic mice having introduced human CETP gene (hereafter referred to as mice; prepared using the method described in Japanese Patent Application No. Hei 8-130660), which had been fasted overnight. Blood was collected before administration, and 6 hours after administration CETP activity in the plasma was determined using the following method.
Donor lipoprotein ([^3H]CE-HDL3, containing 0.21 μg cholesterol) obtained in the above (1), acceptor lipoprotein obtained in the above (2) (containing 21 μg of cholesterol), and 0.9 μl of mice plasma were added to microtubes. A total volume was adjusted to 600 μl/tube with a TBS solution [10 mM Tris/0.15 M NaCl (pH 7.4)]. The microtubes were incubated for 15 hours at 37° C. or 4° C. Then, an ice-cooled TBS solution (400 μl/tube) and a 0.3% dextran sulfate solution (100 μl/tube) containing 0.15 M magnesium chloride were added to the microtubes and mixed well. After allowing the microtubes to stand for 30 minutes at 4° C., centrifugation (8,000 rpm, 4° C., 10 minutes) was carried out and radioactivity of the resulting supernatant (HDL fraction) was determined with a scintillation counter.

[2] = biological target: T1, CETP; assay: In vitro CETP activity inhibitory effect in whole plasma; assay type: biochemical; design: Plasma containing [^3H]CE-HDL3 (600,000 dpm/ml) was prepared by adding donor lipoprotein obtained in the above (1) to plasma from healthy subjects; from tissue; host or cells: whole plasma of healthy subjects; settings: plasma from healthy subjects containing [3H]CE-HDL3, incubated 4 hours at 37° C.; read-out: CETP activity inhibition in whole plasma IC50
Procedure: The fraction thus obtained was dialyzed against a PBS solution [10 mM Na2HPO4/10 mM NaH2PO4/0.15 M NaCl/1 mM EDTA (pH 7.4)]. Then, tritium-labeled cholesterol (10 nM) (50.3 Ci/mM) was dissolved in 95% ethanol and added gradually to the above HDL3 fraction under stirring. The solution was incubated for 18 hours at 37° C. […] After incubation, KBr was added and specific gravity was adjusted to d=1.21 g/ml. […] A sample solution was prepared using a 1:1 solution of N-methylpyrrolidone and polyethyleneglycol 400 as a solvent. […] Based on the inhibition rate (%) of CETP activity, IC50 value of each sample was calculated.

Compound | inhibition at 10 mg/kg [1] | inhibition at 30 mg/kg [1] | IC50 [2] | inhibition at 100 mg/kg [1] | inhibition at 300 mg/kg ([1]; 300 mg/kg)
CC(=O)N[C@@H](CCC(N)=O)C(=O)Sc1ccccc1NC(=O)C1(CCC(C)C)CCCCC1 [Example 45] | 18% | 36% | 7 µM |  | 
CC(C)CCC1(C(=O)Nc2ccccc2SC(=O)C(C)(C)O)CCCCC1 [Example 46] | 22% | 48% | 5 µM |  | 
CCC(CC)CC1(C(=O)Nc2ccccc2SC(=O)C(C)C)CCCCC1 [Example 26, S-[2-[1-(2-ethylbutyl)cyclohexanecarbonylamino]-phenyl]2-methylthiopropionate] |  | 44% | 7 µM |  | 
CC(C)C1(C(=O)Nc2ccccc2S)CCCCC1 [Example 14] |  | 9% | 8 µM |  | 
CC(C)CCC1(C(=O)Nc2cc(F)c(F)cc2SC(=O)C(C)(C)C)CCCCC1 [Example 80] |  | 12% | 6 µM |  | 
CC(C)CCC1(C(=O)Nc2ccccc2SC(=O)C(C)(C)C)CCCCC1 [Example 33] | 23% | 39% | 61 µM | 52% | 55%
CC(=O)Sc1ccccc1NC(=O)C1(CCC(C)C)CCCC1 [Example 49] |  | 29% | 6 µM |  | 
CC(C)CCC1(C(=O)Nc2ccccc2SC(=O)C2CC2)CCCCC1 [Example 42] | 31% | 38% | 9 µM |  | 
CC(C)CCC1(C(=O)Nc2ccccc2SC(=O)C(C)C)CCCCC1 [Example 40] | 20% | 48% | 23 µM | 64% | 
CC(C)CCC1(C(=O)Nc2cc(Cl)ccc2SC(=O)C(C)(C)C)CCCCC1 [Example 76] |  | 4% | 18 µM |  | 
CC(=O)Sc1ccccc1NC(=O)C1(CCC(C)C)CCCCC1 [Example 25, S[2-(1-isopentylcyclohexanecarbonylamino)phenyl]thioacetate] | 19% | 45% | 11 µM | 52% | 
CC(C)CCC1(C(=O)Nc2cc(C#N)ccc2SC(=O)C(C)(C)C)CCCCC1 [Example 75] |  | 1% | 25 µM |  | 
CC(C)CC1(C(=O)Nc2ccccc2SC(=O)COc2ccc(Cl)cc2)CCCCC1 [Example 64] |  | 34% | 4 µM |  | 
CCC(CC)CC1(C(=O)Nc2ccccc2SC(=O)C(C)(C)C)CCCCC1 [Example 60] |  | 44% | 41 µM |  | 
CC(C)CCC1(C(=O)Nc2cc(C(F)(F)F)ccc2SC(=O)C(C)(C)C)CCCCC1 [Example 52] |  | 8% | 8 µM |  | 
CC(C)CCC1(C(=O)Nc2ccc(Cl)cc2SC(=O)C(C)(C)C)CCCCC1 [Example 77] |  | 1% | 17 µM |  | 
COc1ccc(SC(=O)C(C)(C)C)c(NC(=O)C2(CCC(C)C)CCCCC2)c1 [Example 78] |  | 11% |  |  | 
Cc1cccc(NC(=O)C2(CCC(C)C)CCCCC2)c1S [Example 23] |  | 18% |  |  | 
CC(C)CCC1(C(=O)Nc2ccccc2SSCC2CCCO2)CCCCC1 (stereo not drawn) [Example 83, 2-tetrahydrofurylmethyl 2-(1-isopentylcyclohexane-carbonylamino)phenyl disulfide] |  |  | 5 µM |  | 
CC1(C(=O)Nc2ccccc2SC(=O)c2ccccc2)CCCCC1 [Example 32] |  |  | 32 µM |  | 
CC(C)(C)C(=O)Sc1cc(Cl)c(Cl)cc1NC(=O)C1(C2CC2)CCCCC1 [Example 67] |  |  | 9 µM |  | 

The next lines start with the values.

inhibition at 10 mg/kg [1] | inhibition at 30 mg/kg [1] | IC50 [2] | inhibition at 100 mg/kg [1] | inhibition at 300 mg/kg ([1]; 300 mg/kg) | Compound
 | 24% | 7 µM |  |  | CC(=O)NC1(C(=O)Sc2ccccc2NC(=O)C2(CCC(C)C)CCCCC2)CCCCC1 [Example 25-56]
 |  | 6 µM | 14% |  | CC(C)CCC1(C(=O)Nc2ccccc2SC(=O)NC(C)(C)C)CCCC1 [Example 25-105]
 |  | 21 µM | 25% |  | COc1ccccc1C(=O)Sc1ccccc1NC(=O)C1(CCC(C)C)CCCC1 [Example 25-63]
 | 28% | 5 µM |  |  | CC(C)CCC1(C(=O)Nc2ccccc2SC(=O)Cc2ccccc2)CCCC1 [Example 25-61]
 |  | 9 µM | 35% |  | CC(C)CCC1(C(=O)Nc2ccccc2SC(=O)c2ccc([N+](=O)[O-])cc2)CCCCC1 [Example 25-46]
 | 8% | 7 µM |  |  | CC(C)CCC1(C(=O)Nc2ccccc2SC(=O)N(C(=O)Nc2ccccc2)c2ccccc2)CCCCC1 [Example 25-101]
 |  | 9 µM | 19% |  | CC(C)CCC1(C(=O)Nc2ccccc2SC(=O)NC(C)(C)C)CCCCC1 [Example 25-97]
 |  | 10 µM | 17% |  | CC(=O)Sc1cc(Cl)c(Cl)cc1NC(=O)C1(CCC(C)C)CCCCC1 [Example 25-84]
 |  | 8 µM | 9% |  | CC(C)CCC1(C(=O)Nc2cc(Cl)c(Cl)cc2SC(=O)NC(C)(C)C)CCCCC1 [Example 25-102]
 |  | 10 µM |  |  | CC(C)CCC1(C(=O)Nc2ccccc2SC(=O)[C@@H]2CCCN2C(=O)c2ccccc2)CCCCC1 [Example 25-55]
 |  | 10 µM |  |  | CC(C)CC1(C(=O)Nc2cc(Cl)c(Cl)cc2SC(=O)C(C)(C)C)CCCCC1 [Example 66-42]
 |  | 26 µM |  |  | CC(C)C(C(=O)Nc1cc(Cl)c(Cl)cc1SC(=O)C(C)(C)C)C1CCCCC1 (stereo not drawn) [Example 66-38]
 |  | 20 µM |  |  | CC(=O)N[C@@H](C(=O)Sc1ccccc1NC(=O)C1(C)CCCCC1)c1ccccc1 [Example 25-38]
 |  | 23 µM |  |  | CC(C)CCC1(C(=O)Nc2ccccc2SC(=O)c2ccc(C(=O)Sc3ccccc3NC(=O)C3(CCC(C)C)CCCCC3)cc2)CCCCC1 [Example 25-48]
 |  | 5 µM |  |  | CC(C)CCC1(C(=O)Nc2cc(Cl)c(Cl)cc2SSc2cc(Cl)c(Cl)cc2NC(=O)C2(CCC(C)C)CCCC2)CCCC1 [Example 82-1]
 |  | 11 µM |  |  | CC(C)CCC1(C(=O)Nc2cc(Cl)c(Cl)cc2SC(=O)C2CCN(C)CC2)CCCCC1 [Example 25-78]

Reference: US9000045B2, “CETP activity inhibitors” (Japan Tobacco Inc., priority 1997, dated 2015)
